# From patent publication US20110045102A1, “Cancer chemotherapy compositions comprising PI3K pathway modulators and triptolide” (priority 2005, published 2011)
# Columns and labels:
# Akt = experiment: Western blot for Akt phosphorylation (Example III); format: cell-based, human; details: 6 hr and 24 hr; LY294002 10 (FIG. 18 legend: mM), carboplatin 50
# Procedure: The OCC1-SEAP-12 cells were grown to 80% confluence. […] […] Total cell lysates were subjected to SDS polyacrylamide gel electrophoresis 9 page) and transferred to PVDF membranes (Millipore, Bedford, Mass.). Membranes were immunoblotted with antibodies to both the phosphorylated and non-phosphorylated forms of […] (Cell Signaling Technology, Beverly, Mass.), or alternatively, with antibodies to cleaved and full length caspase-3 (Cell Signaling Technology, Beverly, Mass.).
# OCC1-SEAP cell cultures = experiment: DNA fragmentation (laddering) on agarose gel (Example II); format: cell-based, human; details: 48 hr; TPL 100 ng/ml, carboplatin 50 μg/ml
# Procedure: (§1) Following 48 h to 72 h treatment incubations, cells were suspended into culture medium and pelleted in tubes. DNA was isolated from collected cells using a Puregene™ DNA isolation kit (Gentra Systems, Minneapolis, Minn.). The quantity and purity of nucleic acid preparations were estimated by measuring the absorbance of each sample (A260/A280). DNA preparations (10 μg/well) were loaded onto 1.2% agarose gels and visualized with ethidium bromide stain.
# [1] = system: OCC1-SEAP-12 ovarian cancer cells; format: in vivo
# Procedure: Athymic nude mice were obtained and inoculated intraperitoneally with OCC1-SEAP-12 cells as described above in Examples I and II. Animals received injections of either vehicle control (PBS containing 25% DMSO), or carboplatin (60 mg/kg) alone, or in combination with LY294002 (50 mg/kg) every other day for 6 days. Blood samples were collected into capillary tubes from saphenous vein lancings at regular intervals during and following treatments. Capillary tubes were centrifuged, and the plasma samples were frozen (−20° C.), until the time of SEAP assay. The Washington State University Animal Care and Use Committee approved all procedures.
# Blood plasma and cell culture medium samples were assayed for SEAP activity using the Great EscAPe SEAP fluorescence detection kit (Clontech Laboratories, Palo Alto, Calif.) as described above in Examples I and II. Blood plasma samples were diluted 1:100 prior to the assay to bring values within the linear range of the standard curve. The intraassay and interassay coefficients of variation were 2.5% and 18.8%, respectively.
# caspase-3 = experiment: Western blot for active caspase-3 (Example II); format: cell-based, human; details: carboplatin alone
# OCC1-SEAP-12 cells = experiment: DNA laddering on agarose gel (Example III); format: cell-based, human; details: 48 hr and 72 hr
# Procedure: as §1, with “48 hr” for “48 h”, “72 hr” for “72 h”, “the optical density” for “the absorbance”, “sample A260/A280).” for “sample (A260/A280).”
# caspase 3 = experiment: Western blot for active caspase 3 (Example III); format: cell-based, human; details: LY294002 10 μM, carboplatin 50 μg/ml
# Procedure: The OCC1-SEAP-12 cells were grown to 80% confluence. Cultures were incubated in DMEM plus 0.1% bovine serum albumin (BSA) and 0.1% BCS to which either vehicle control, carboplatin (0-50 μg/ml), LY294002 (0-20 μM) or combinations of these treatments. Following 24, 48 or 72 hr cells were lysed with sample buffer (62.5 mM Tris-HCl, pH 6.8, 2% SDS, 5% glycerol, […], 0.5% β-mercaptoethanol). Total cell lysates were subjected to SDS polyacrylamide gel electrophoresis 9 page) and transferred to PVDF membranes (Millipore, Bedford, Mass.). Membranes were immunoblotted with antibodies to both the phosphorylated and non-phosphorylated forms of […] (Cell Signaling Technology, Beverly, Mass.), or alternatively, with antibodies to cleaved and full length caspase-3 (Cell Signaling Technology, Beverly, Mass.).
# [2] = system: OCC1-SEAP intraperitoneal tumors; experiment: Nude mouse intraperitoneal OCC1-SEAP tumor model, plasma SEAP (Example I); format: in vivo, athymic nude mice; details: established tumors; carboplatin 60 mg/kg three times over 4 days
# Procedure: Athymic nude mice (Nu/Nu; Charles River Laboratories, Wilmington, Mass.) weighing about 25 g were used for in vivo studies.
# Three mice were injected intraperitoneally with 1×10^7 OCC1-SEAP-12 cells. The experimental treatments began after 1 week. […] Alternatively, four mice with well-developed tumors (2-4 weeks after injection) were treated with a high dose of carboplatin (60 mg/kg) three times over a period of 4 days. After death all visible intraperitoneal tumors were dissected out and weighed.
# Blood samples were collected from saphenous vein lancings three times per week into heparinized capillary tubes. The capillary tubes were centrifuged and the plasma samples were frozen at −20° C. until the time of SEAP assay. Blood samples were taken for SEAP assay from the mice within 24 hours of death 2-3 weeks after intraperitoneal injection of OCC1-SEAP cells.
# Blood plasma and cell culture medium samples were assayed for SEAP activity using the Great EscAPe SEAP fluorescence detection kit (Clontech Laboratories, Palo Alto, Calif.). SEAP is secreted at a constant rate by transfected tumor cells and distributed throughout the body or into the culture medium. SEAP is heat stable, so any endogenous alkaline phosphatase activity in blood plasma is destroyed by heat treatment of the samples (65° C. for 30 minutes) during the assay. The SEAP enzyme in each sample acts on the substrate 4-methylumbelliferyl phosphate during a 1 hour incubation at room temperature to produce a fluorescent product with excitation and emission peaks at 360 and 449 nm, respectively. A fluorimeter is then used to measure SEAP activity. The intra-assay and inter-assay coefficients of variation were 2.5% and 18.8%, respectively. Blood plasma samples were diluted 1:100 prior to the assay to bring values within the linear range of the standard curve.
smiles,measurement,setting,value
N.N.O=C([O-])C1(C(=O)[O-])CCC1.[Pt+2] [carboplatin],Akt phosphorylation,Akt,had not effect
same,DNA laddering,OCC1-SEAP cell cultures,evident
same,drug induced toxicity,"[1]; carboplatin 60 mg/kg, alone or with LY294002 50 mg/kg",muscle wasting and became anemic
same,abdominal swelling (FIG. 24),[1]; physical appearance of mice after treatment,displayed abdominal swelling
same,tumor size vs vehicle control (FIG. 23),"[1]; single agents: LY294002 50 mg/kg, carboplatin 60 mg/kg",no significant difference
same,time until caspase-3 is activated post-treatment,caspase-3,48 h
same,DNA laddering,OCC1-SEAP-12 cells,observed
same,time at which active 17 kDa caspase 3 appears,caspase 3,48 h
same,tumor burden by plasma SEAP levels,[2],transiently decreased the tumor burden
